Results taken from paper PMC9822769, “The Strange Case: The Unsymmetric Cisplatin-Based Pt(IV) Prodrug [Pt(CH3COO)Cl2(NH3)2(OH)] Exhibits Higher Cytotoxic Activity with respect to Its Symmetric Congeners due to Carrier-Mediated Cellular Uptake” (Bioinorganic Chemistry and Applications, 2022).

Key:
A2780 cells = assay: Cellular Pt accumulation (accumulation ratio, ICP-MS) in A2780 cells; type: cell-based, human; conditions: A2780, 4 h CT, 10 μM
Description: A2780 and A2780cisR cells were seeded in 10 mm Petri dishes and challenged with complexes under investigation (10 μM) in a complete medium for 4 h. At the end of the exposure, cells were washed three times with PBS, detached from Petri dishes using 0.05% trypsin 1x + 2% EDTA (HyClone, Thermo Fisher), and harvested in a completely fresh medium. An automatic cell counting device (Countess®, Life Technologies) was used to measure the number and mean diameter of each cell necessary to calculate the mean cellular (spherical) volume.
For the analysis of Pt accumulation, cells were transferred to a borosilicate glass tube and centrifuged at 1100 rpm for 5 min at room temperature. The supernatant was carefully removed by aspiration, while approximately, 200 μL of the supernatant was left to limit cell loss. Cellular pellets were stored at −80°C until mineralization.
The determination of the platinum content was performed by ICP-MS (Thermo Optek X Series 2). Mineralization was carried out by adding 70% w/w HNO3 to each sample (after defrosting), followed by incubation for 1 h at 60°C in an ultrasonic bath. Before the ICP-MS measurement, HNO3 was diluted to a final concentration of 1%. The instrument settings were optimized to produce the highest platinum sensitivity, and the most abundant isotopes of Pt and In (used as an internal standard) were quantified at m/z 195 and 115, respectively.
The quantity of Pt found in cells and normalized on cell number (cellular Pt accumulation) was expressed as ng of Pt per 10^6 cells. The mean cellular volume, calculated from the actual mean cell diameter measured for each sample (about 12 μm), was used to obtain the volume of 10^6 cells and, finally, the intracellular Pt concentration. At treatment time zero, 100 μL of the medium was taken from each sample to verify the extracellular Pt concentration. The ratio between intracellular and the actual extracellular concentrations is defined as the accumulation ratio, AR [70]. The Pt content in the control experiment, which characterizes any possible Pt contamination during the overall process, was statistically insignificant with respect to the cellular Pt accumulated during treatment, even in the case of A2780cisR.
Experiments with the inhibitors were carried out at 37°C as follows: (i) NaN3 + 2-deoxy-D-glucose (2DG): preincubation for 30 min in PBS with 25 mM NaN3 and 25 mM 2DG, followed by a 10 μM CT with the Pt compounds in Earle's Balanced Salt Solution (EBSS) for 1 h; (ii) cimetidine (CMT): coincubation with 1.5 mM CMT and 10 μM Pt compounds in EBSS for 1 h; (iii) 1-methyl-4-phenylpyridin-1-ium (MPP^+): coincubation with 2.0 mM MPP^+ and 10 μM Pt compounds in EBSS for 1 h; (iv) cytochalasin D (CTD): preincubation for 30 min in EBSS with 10 μM CTD, followed by a 10 μM CT with the Pt compounds in EBSS for 1 h; (v) O-benzylserine (BS): coincubation with 1.0 mM BS and 10 μM Pt compounds in EBSS for 4 h; (vi) ouabain (OUA): preincubation for 1 h in EBSS with 1 mM OUA, followed by a 10 μM CT with the Pt compounds in EBSS for 4 h; (vii) tetraethylammonium chloride (TEA): preincubation for 1 h with 2.0 mM TEA followed by 10 μM Pt compounds in EBSS for 4 h. In the experiments at low temperature, A2780 cells were preincubated for 2 h at 4°C, followed by CT with each Pt compound (10 μM) for 4 h. In all cases, at the end of the CT, the cells were manipulated as described in the previous paragraphs.

A2780 = assay: Resazurin reduction cell viability assay, A2780; type: cell-based, human; conditions: 72 h of treatment; mean ± sd
Description: (§1) The compounds under investigation were tested on a panel of commercial human cancer cell lines: ovarian endometrioid adenocarcinoma A2780 (ICLC HTL98008), its cisplatin-resistant variant A2780cisR (ECACC 93112517), colon carcinoma HCT 116 (ECACC 91091005), breast invasive ductal carcinoma MCF7 (ECACC 86012803), embryonal carcinoma NTERA-2 clone D1 (also known as NT2/D1, ICLC HTL97025), and lung adenocarcinoma A549 (ICLC HTL03001). Furthermore, a cell line derived from the pleural effusion of a patient with untreated malignant pleural mesothelioma (MPM) was added to the panel, namely, MM98 (sarcomatoid phenotype). Commercial cells were purchased from the European Collection of Authenticated Cell Cultures (ECACC, UK) or the Interlab Cell Line Collection (ICLC, Genoa, Italy), while the MM98 cell line was obtained from the Pathology Unit of the National Hospital of Alessandria (Italy).
The following media were used to grow the cells: RPMI 1640 (for A2780, A2780cisR, NT2/D1, and A549 cells), DMEM (for MCF7 cells), DMEM supplemented with nonessential amino acids (for MM98 cells), and McCoy's 5A (for HCT 116 cells). All media contained L-glutamine (2 mM) and were added with penicillin (100 IU·mL^−1), streptomycin (100 mg·L^−1), and 10% heat inactivated FBS. To maintain resistance in A2780cisR cells, cisplatin (1 μM) was added to the medium every two passages.
Continuous treatments (CT) were carried out at 37°C in a humidified chamber with 5% CO2. Cisplatin was dissolved in a 0.9% w/v NaCl aqueous solution and brought to pH = 3 with HCl (final stock concentration 1 mM). The Pt(IV) Complexes 1–3 were dissolved in milliQ water (final stock concentration 5 mM) and stored at −20°C. The stock concentration was confirmed with inductively coupled plasma-mass spectrometry (ICP-MS) measurements. The mother solutions were diluted in a complete medium to the required concentration.
(§2) To assess the growth inhibition of the compounds under investigation, a cell viability test (i.e., the resazurin reduction assay) was used. […] At the end of the treatment (72 h), viability was evaluated with 100 μg·mL^−1 resazurin (Acros Chemicals, France) in a fresh medium for 1 h at 37°C, and the amount of the reduced product, resorufin, was measured by fluorescence (excitation λ = 535 nm, emission λ = 595 nm) with a Tecan Infinite F200Pro plate reader (Tecan, Austria). In each experiment, cells were challenged with drug candidates at different concentrations, and the final data were calculated from at least three replicates of the same experiment performed in triplicate. The fluorescence of 8 wells containing a medium without cells was used as a blank. Fluorescence data were normalized to 100% cell viability for nontreated cells. […]

[1] = test system: panel of human cancer cell lines; assay: Antiproliferative activity, panel of human cancer cell lines (average); type: cell-based; conditions: 72 h; for IC50: wild cell panel
Description: as §1
The following media were used to grow the cells: RPMI 1640 (for A2780, A2780cisR, NT2/D1, and A549 cells), DMEM (for MCF7 cells), DMEM supplemented with nonessential amino acids (for MM98 cells), and McCoy's 5A (for HCT 116 cells). […]
as §2

| SMILES | ratio between AR 37°C and AR 4°C (A2780 cells) | IC50 (A2780) | accumulation ratio (AR) (A2780 cells; 37°C) | potency, times higher than those of 1 and 3 ([1]; panel of human cancer cell lines) | IC50 [1] |
| --- | --- | --- | --- | --- | --- |
| CC(=O)[O][Pt]([NH2])([NH2])([Cl])([Cl])[O]C(C)=O [Complex 3, (OC-6-33)-diamminedichloridodiacetatoplatinum(IV)] | 3.6 | 12100 ± 5200 nM | – | – | – |
| CC(=O)[O][Pt]([OH])([Cl])[Cl].N.N [Complex 2, (OC-6-44)-acetatodiamminedichloridohydroxidoplatinum(IV)] | increases hugely | 160 ± 50 nM | higher AR at 4 h than 1 and 3, even higher than that of cisplatin | 10–100 times | 2910 nM |
| N.N.[OH][Pt]([OH])([Cl])[Cl] [Complex 1, (OC-6-33)-diamminedichloridodihydroxidoplatinum(IV)] | 3.2 | 3710 ± 1930 nM | – | – | – |
| N.N.[Cl][Pt][Cl] [Cisplatin, (SP-4-2)-diamminedichloridoplatinum(II)] | increases hugely | 480 ± 120 nM | – | – | 2720 nM |
